{"source": "patent US20060205597A1", "about": "“Weed-controlling mulching composition” (priority 2002, published 2006)", "test_system": "Rumex obtusifolius, Trifolium repens, and Artemisia indica var. maximowiczii", "assay": "Field test on bottom weed of an apple orchard", "type": "in vivo", "conditions": "after 3 months", "source_text": "On May 21, 5.0 liters per square meter (m^2) of a slurry obtained by mixing 15% of nonstoichiometric magnesia carbonate cement with 100 fold diluted solution of glyphosate was applied to the bottom weed of an apple orchard in Hirosaki city of Aomori prefecture. The kinds of the bottom weed included Rumex obtusifolius, Trifolium repens, and Artemisia indica var. maximowiczii and these grew to a height of 150 mm. As comparative sections, a glyphosate alone section and a no-glyphosate section were provided and after 3 months the state of growth of weeds was observed. […] From the viewpoint of the thickness of the weed, mixed application of the herbicide and the nonstoichiometric magnesia carbonate cement was very effective and the mixed treatment section inhibited the growth of the weeds until October."}
{"smiles": "O=C(O)CNCP(=O)(O)O", "note": "[glyphosate]", "values": [{"measurement": "state of growth of weeds", "setting": "5.0 liters per square meter applied May 21", "result": "again grew"}, {"measurement": "height of regrown weed (spindly growth)", "result": 230, "unit": "mm"}]}
